The text below walks through data of paper PMC6009964, “Designing, synthesis and bioactivities of 4-[3-(4-hydroxyphenyl)-5-aryl-4,5-dihydro-pyrazol-1-yl]benzenesulfonamides” (Journal of Enzyme Inhibition and Medicinal Chemistry, 2016).

The structures appear in SMILES notation. pKi: −log10 of the molar value.

Data set [1] in a line: Cytotoxicity assay (MTT), HPLF. The conditions noted are these: human, normal periodontal ligament fibroblasts (HPLF).
The target in data set [2] is T1, hCA XII (Homo sapiens, UniProt O43570).
T1 construct: made in house
In words: Stopped-flow CO2 hydration carbonic anhydrase assay, hCA XII. The format is biochemical. The conditions noted are these: for pKi: stopped-flow CO2 hydration, 15 min preincubation, pH 7.5; for hCA XII/hCA IX (selectivity ratio of Ki): times more selective towards hCA XII than hCA IX.

The subject of data set [3] is Human oral squamous cell carcinoma cell lines (Ca9–22, HSC-2, HSC-3, HSC-4). In words: Cytotoxicity assay (MTT), all four OSCC lines (mean, selectivity). To be noted: for CC50: Homo sapiens, read-out: CC50 Mean (B), human oral squamous cell carcinoma cell lines; for TS (D/B): mean CC50 against normal cells / mean CC50 against cancer cells; for Mean SI: mean SI over four OSCC cell lines.

Data set [4] can be described thus: Cytotoxicity assay (MTT), normal oral cells (mean). The conditions noted are these: human, normal oral cells HGF, HPLF, HPC (mean of the three).
The nature of data set [5]: Cytotoxicity assay (MTT), HGF. To be noted: human, normal gingival fibroblasts (HGF).
Data set [6] is described as follows: Cytotoxicity assay (MTT), HPC. The conditions noted are these: human, normal pulp cells (HPC).
The subject of data set [7] is Ca9–22 human oral squamous cell carcinoma cell line (gingiva). In words: Cytotoxicity assay (MTT), Ca9-22. The conditions noted are these: for TS (C/A): CC50 HGF / CC50 Ca9–22 (same tissue origin, gingiva); for CC50: Homo sapiens, Ca9-22, 48 h, read-out: CC50 Ca9–22 (A); for SI (Ca9–22): average CC50 of nonmalignant cells / CC50 towards Ca9–22.
In data set [8] the test system is HSC-4 human oral squamous cell carcinoma cell line (tongue). In words: Cytotoxicity assay (MTT), HSC-4. To be noted: for CC50: Homo sapiens, HSC-4, 48 h, read-out: CC50 HSC-4; for SI (HSC-4): average CC50 of nonmalignant cells / CC50 towards HSC-4.
The subject of data set [9] is HSC-3 human oral squamous cell carcinoma cell line (tongue). In words: Cytotoxicity assay (MTT), HSC-3. The conditions noted are these: for CC50: Homo sapiens, HSC-3, 48 h, read-out: CC50 HSC-3; for SI (HSC-3): average CC50 of nonmalignant cells / CC50 towards HSC-3.
Data set [10] deals with HSC-2 human oral squamous cell carcinoma cell line (tongue). In words: Cytotoxicity assay (MTT), HSC-2. To be noted: for CC50: Homo sapiens, HSC-2, 48 h, read-out: CC50 HSC-2; for SI (HSC-2): average CC50 of nonmalignant cells / CC50 towards HSC-2.
Data set [11] concerns the target T2, hCA IX (Homo sapiens, UniProt Q16790).
T2 construct: made in house
In words: Stopped-flow CO2 hydration carbonic anhydrase assay, hCA IX. The format is biochemical. To be noted: for pKi: stopped-flow CO2 hydration, 15 min preincubation, pH 7.5.

Usually CC50 stands for the concentration at which the toxic effect on the cells reaches its halfway point. In general, pKi refers to the Ki on a negative log10 scale, so that one unit is a factor of ten. Read a low pKi as a large Ki.

T1 sequence (O43570 25-354): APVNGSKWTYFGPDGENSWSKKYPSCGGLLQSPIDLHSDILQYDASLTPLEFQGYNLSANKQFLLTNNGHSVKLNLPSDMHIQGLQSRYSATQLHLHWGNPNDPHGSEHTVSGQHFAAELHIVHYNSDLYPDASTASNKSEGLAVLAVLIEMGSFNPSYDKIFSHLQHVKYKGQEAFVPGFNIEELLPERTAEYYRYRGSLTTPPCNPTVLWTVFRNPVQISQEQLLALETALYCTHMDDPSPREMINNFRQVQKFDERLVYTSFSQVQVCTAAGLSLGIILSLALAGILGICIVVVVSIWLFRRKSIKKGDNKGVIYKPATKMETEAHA

Molecule `NS(=O)(=O)c1ccc(N2N=C(c3ccc(O)cc3)CC2c2ccc(Cl)cc2Cl)cc1` (stereo not shown) [Compound 5, 4-[5-(2,4-Dichlorophenyl)-3-(4-hydroxyphenyl)-4,5-dihydro-pyrazol-1-yl]benzenesulfonamide] had a CC50 at 48 h in [1] of 34.7 µM. In data set [2] (ratio of Ki versus compound 1), the “times more potent than compound 1 towards hCA XII” value stood at 7.5. Further, in [2], the negative logarithm of the Ki (pKi) was 8.04 and the “hCA XII/hCA IX (selectivity ratio of Ki)” value came out at 9.3. In addition, in [3], the CC50 was found to be 64.2 µM, the “TS (D/B)” value stood at 1.2 and the “Mean SI” value is given as 1.3. The molecule also came in with a 50% cytotoxic concentration (CC50) at 48 h in [4] of 76.2 µM. Moreover, half-maximal cytotoxicity in [5] (CC50 at 48 h) was put at 63 µM. This molecule also came in with a half-maximal cytotoxic concentration (CC50) at 48 h in data set [6] of 131 µM. In [7], the “TS (C/A)” value came out at 1.4, the cytotoxic concentration (CC50) is 44.3 µM and the “SI (Ca9–22)” value came to 1.7. In [8], the CC50 came to 54 µM and the “SI (HSC-4)” value came to 1.4. Also, in [9], the CC50 was 76 µM and the “SI (HSC-3)” value came to 1.0. In [10], the CC50 came to 82.3 µM and the “SI (HSC-2)” value was determined as 0.9. Also, the “times more potent than compound 1 towards hCA IX” value in data set [11] (ratio of Ki versus compound 1) was 10.8. The negative logarithm of the Ki (pKi) in [11] was 7.07.

Regarding `NS(=O)(=O)c1ccc(N2N=C(c3ccc(O)cc3)CC2c2ccccc2)cc1` (stereo not shown) [Compound 1, 4-[3-(4-Hydroxyphenyl)-5-phenyl-4,5-dihydro-pyrazol-1-yl]benzenesulfonamide], the cytotoxic concentration (CC50) at 48 h in data set [1] was 59.7 µM; in data set [4], 118 µM; in data set [5], 133 µM; in [6], 161 µM. The results for the pKi in data set [2] and in data set [11] were 7.16 and 6.03, respectively. In addition, in [2], the “hCA XII/hCA IX (selectivity ratio of Ki)” value stood at 13.4. For the same molecule, the cytotoxic concentration (CC50) in data set [3] came out at 85.3 µM; in data set [7], 82 µM; in data set [8], 83.7 µM; in data set [9], 81 µM; in data set [10], 94.7 µM. Also, the “TS (D/B)” value in [3] is 1.4. The “Mean SI” value in data set [3] was 1.4. In data set [7], the “TS (C/A)” value was determined as 1.6. Also, the “SI (Ca9–22)” value in data set [7] is recorded as 1.4. Also, the “SI (HSC-4)” value in data set [8] is on record as 1.4. Besides, the “SI (HSC-3)” value in [9] amounted to 1.5. The “SI (HSC-2)” value in [10] worked out at 1.2.
